# In patent US12343400B2, “Brain tumor-targeting peptide and application thereof” (priority 2018, dated 2025):
# Where a SMILES comes first, the peptide text is derived from it. Bridges are numbered along the chain shown (N, C = ends). Where no end group is shown, it is not given here. The star is where a group is joined. Paclitaxel(2'-O-succinyl) = CC(=O)O[C@H]1C(=O)[C@@]2(C)[C@H]([C@H](OC(=O)c3ccccc3)[C@]3(O)C[C@H](OC(=O)[C@H](OC(=O)CCC(=O)*)[C@@H](NC(=O)c4ccccc4)c4ccccc4)C(C)=C1C3(C)C)[C@]1(OC(C)=O)CO[C@@H]1C[C@@H]2O
# How the values were obtained:
# U87MG brain glioma = assay: Survival time of brain glioma model mice; assay type: in vivo, nude mice; conditions: tail vein, equal dose
# Procedure: On the first day, 10^6 U87MG cells were inoculated at the right caudate nucleus of nude mice of 6-8 weeks old. Three days later, a solvent or equal dose of paclitaxel or PBL001 was administered via the tail vein, and the survival time of each group of mice was recorded, as shown in FIG. 13.
# U87 brain tumors = conditions: mouse, in vivo
# Procedure: Cyanine5.5 NHS ester labeling reagent of the Lumiprobe brand was used to fluorescently label each short peptide, and each short peptide was labeled with one fluorescent molecule. […] The fluorescence intensity per unit area was calculated for the brain tumor site and other brain sites respectively, and the enrichment factor of the corresponding polypeptide at the tumor site can be obtained by dividing the fluorescence intensity per unit area at the brain tumor site by the fluorescence intensity per unit area at other brain sites.
# u87 brain glioma = assay: Enrichment of fluorescent short peptides in brain and tumor of u87 brain glioma model mice; assay type: in vivo, nude mice
# Procedure: u87 brain glioma cells were cultivated. When the cells grew to a sufficient amount, the cells were taken, 8-weeks old nude mice were selected, the brains were located, and 5× 10^5 cells were injected at the location for brain tumorigenesis. U87 tumorigenesis cell line is a cell line with luciferase gene transferred, and the mouse imager can be used to observe the tumorigenesis effect in real time.
# After tumorigenesis of the tumor model mice became stable, 100 μl of solution of short peptides labeled with fluorescent molecules was injected into the tail veins. A short peptide Angiopep 2, which was from the Angiochem company and was reported in an article to be able to cross the blood-brain barrier, was selected as a reference control. It is currently reported that this short peptide has excellent applications in crossing the blood-brain barrier and targeting brain tumors. The negative control was fluorescent molecule cy5.5 of the same amount of fluorescence equivalent. After the tail vein injection, the small animal in vivo imaging system IVIS was used to check the brain fluorescence. 100 μl of 5 mg/ml luciferase reaction substrate was injected into the intraperitoneal cavity. After 5 minutes, the small animal imaging system was used to check the brain tumors.
# The brains of the mice were taken and the fluorescence of the brains was compared.
compound,measurement,setting,value
CC[C@H](C)[C@H](NC(=O)CNC(=O)[C@H](CCCNC(=N)N)NC(=O)[C@H](CC(C)C)NC(=O)[C@H](Cc1ccccc1)NC(=O)[C@H](CC(N)=O)NC(=O)[C@H](CC(N)=O)NC(=O)[C@H](CCCNC(=N)N)NC(=O)[C@H](CCCCNC(=O)CCC(=O)O[C@@H](C(=O)O[C@H]1C[C@@]2(O)[C@@H](OC(=O)c3ccccc3)[C@@H]3[C@]4(OC(C)=O)CO[C@@H]4C[C@H](O)[C@@]3(C)C(=O)[C@H](OC(C)=O)C(=C1C)C2(C)C)[C@@H](NC(=O)c1ccccc1)c1ccccc1)NC(=O)[C@@H]1CCCN1C(=O)[C@H](CCCNC(=N)N)NC(=O)CNC(=O)CNC(=O)[C@H](Cc1ccc(O)cc1)NC(=O)[C@H](Cc1ccccc1)NC(=O)[C@@H](NC(=O)CCC(=O)O[C@@H](C(=O)O[C@H]1C[C@@]2(O)[C@@H](OC(=O)c3ccccc3)[C@@H]3[C@]4(OC(C)=O)CO[C@@H]4C[C@H](O)[C@@]3(C)C(=O)[C@H](OC(C)=O)C(=C1C)C2(C)C)[C@@H](NC(=O)c1ccccc1)c1ccccc1)[C@@H](C)O)C(=O)N[C@@H](CCCNC(=N)N)C(=O)N[C@@H](CO)C(=O)N[C@@H](CCCNC(=N)N)C(=O)NCC(=O)N[C@@H](CC(=O)O)C(=O)O [PBL001] ({Paclitaxel(2'-O-succinyl)}-TFYGGRPK(Paclitaxel(2'-O-succinyl))RNNFLRGIRSRGD-OH),toxic and side effects compared with paclitaxel,U87MG brain glioma,lower toxic and side effects
CC[C@H](C)[C@H](NC(=O)CNC(=O)[C@H](CCCNC(=N)N)NC(=O)[C@H](CC(C)C)NC(=O)[C@H](Cc1ccccc1)NC(=O)[C@H](CC(N)=O)NC(=O)[C@H](CC(N)=O)NC(=O)[C@H](CCCNC(=N)N)NC(=O)[C@H](CCCCN)NC(=O)[C@@H]1CCCN1C(=O)[C@H](CCCNC(=N)N)NC(=O)CNC(=O)CNC(=O)[C@H](Cc1ccc(O)cc1)NC(=O)[C@H](Cc1ccccc1)NC(=O)[C@@H](N)[C@@H](C)O)C(=O)N[C@@H](CCCNC(=N)N)C(=O)N[C@H]1CSSC[C@@H](C(=O)O)NC(=O)[C@H](CC(=O)O)NC(=O)[C@@H]2CCCN2C(=O)CNC(=O)[C@H](CCCCN)NC(=O)[C@H](CC(=O)O)NC(=O)CNC(=O)[C@H](CCCNC(=N)N)NC1=O [SEQ ID NO:8] (H-TFYGGRPKRNNFLRGIRCRGDKGPDC-OH; disulfide 18-26; N-terminus and C-terminus assumed),tumor enrichment (enrichment factor tumor site / other brain sites) compared to SEQ ID NO:2 peptide,U87 brain tumors,not as significant as the other three synthesized polypeptides
TFYGGRPKRNNFLRGIRSRGD [Pb001],brain fluorescence intensity relative to fluorescently labeled reference peptide Angiopep2,u87 brain glioma; brain glioma model mice (FIG. 6),1.2 times
same,fluorescence accumulation in the brain tumor site,u87 brain glioma; brain glioma model mice (FIG. 7),obvious fluorescence accumulation
same,brain enrichment amount compared with fluorescently labeled reference peptide Angiopep2,"u87 brain glioma; brain glioma model mice, tail vein injection, after perfusion (FIG. 5)",better than that of the fluorescently labeled reference peptide Angiopep2
